In US7115608B2, “Pyridinone and pyridinethione derivatives having HIV inhibiting properties” (Centre National de la Recherche Schentifique, priority 2000, dated 2006):
Read-outs that look alike come from different tables or passages of the source.

Columns and labels:
[1] = Cytotoxicity in mock-infected MT-4 cells (MTT); assay type: cell-based; conditions: human, mock-infected MT-4 cells, concentration reducing absorbance of mock-infected MT-4 control by 50%
[2] = test system: HIV-1; experiment: microbe, parasite or virus in culture; conditions: Human immunodeficiency virus 1, MT4
Description: (§1) A rapid, sensitive and automated assay procedure was used for the in vitro evaluation of anti-HIV agents. […] Inhibition of the HIV-induced cytopathic effect was used as the end point. The viability of both HIV- and mock-infected cells was assessed spectrophotometrically via the in situ reduction of 3-(4,5-dimethylthiazol-2-yl)-2,5-diphenyltetrazolium bromide (MTT). […] The percent protection achieved by the compound in HIV-infected cells was calculated by the following formula:
(§2) [formula] expressed in %, whereby (ODT)HIV is the optical density measured with a given concentration of the test compound in HIV-infected cells; (ODC)HIV is the optical density measured for the control untreated HIV-infected cells; (ODC)MOCK is the optical density measured for the control untreated mock-infected cells; all optical density values were determined at 540 nm. […] The ratio of CC50 to IC50 was defined as the selectivity index (SI).

[3] = test system: HIV-1; conditions: for SI: selectivity index, ratio of CC50 to IC50
Description: as §1, §2

[4] = test system: mock-infected MT-4 cells; experiment: Cytotoxicity in mock-infected MT-4 cells (MTT); assay type: cell-based; conditions: concentration reducing absorbance of mock-infected MT-4 control by 50%

Compound	CC50 [1] [nM]	IC50 [2] [nM]	SI [3]	melting point [°C]	CC50 [4] [nM]	IC50 ([3]; dose achieving 50% protection of HIV-infected MT-4 cells, MTT, OD 540 nm) [nM]
CCc1c(C)[nH]c(=O)c(I)c1Oc1cc(I)cc(CC#N)c1 [compound 426, [3-(5-ethyl-3-iodo-6-methyl-2-oxo-1,2-dihydro-pyridin-4-yloxy)-5-iodo-phenyl]-acetonitrile]	63000	1.6	39811	–	–	–
CCc1c(C)[nH]c(=O)c(CC)c1Oc1cc(C)cc(C)c1 [compound 231, 4-(3,5-dimethylphenoxy)-3,5-diethyl-6-methyl-2(1H)-pyridinone]	10000	3.2	3162	–	–	–
CCc1c(C)[nH]c(=O)c(I)c1[S+]([O-])c1cc(C)cc(C)c1 (stereo not drawn) [compound 108]	50000	2.5	19953	–	–	–
CCOCc1c(C)[nH]c(=O)c(I)c1Sc1cc(C)cc(C)c1 [compound 86]	> 100000	3.2	>31623	220 to 222	–	–
CCOCc1c(C)[nH]c(=O)c(Br)c1Sc1cc(C)cc(C)c1 [compound 85]	> 100000	3.2	>31623	183 to 184	–	–
Cc1cc(C)cc(Oc2c(CCl)c(C)[nH]c(=O)c2I)c1 [compound 125, 5-(chloromethyl)-4-(3,5-dimethylphenoxy)-3-iodo-6-methyl-2(1H)-pyridinone]	–	–	–	256 to 258	–	–
Cc1cc(C)cc(Sc2c(CO)c(C)[nH]c(=O)c2I)c1 [compound 61]	–	–	–	240	–	–
C=Cc1c(Oc2cc(C)cc(C)c2)c(CC)c(C)[nH]c1=O [compound 234, 4-(3,5-dimethylphenoxy)-3-ethenyl-5-ethyl-6-methyl-2(1H)-pyridinone]	10000	2	5012	–	–	–
CCc1c(C)[nH]c(=O)c(I)c1Oc1cc(Br)cc(/C=C/C#N)c1 [compound 470]	13000	1	12589	–	–	–
Cc1cc(C)cc(Oc2c(CO)c(C)[nH]c(=O)c2I)c1 [compound 257, 4-(3,5-dimethylphenoxy)-5-(hydroxymethyl)-3-iodo-6-methyl-2(1H)-pyridinone]	> 32000	5	>6310	–	–	–
CCOCc1c(C)[nH]c(=O)c(I)c1Oc1cc(C)cc(C)c1 [compound 255, 4-(3,5-dimethylphenoxy)-5-(ethoxymethyl)-3-iodo-6-methyl-2(1H)-pyridinone]	> 10000	0.6	>15849	234 to 236	–	–
Cc1cc(C)cc(Oc2c(CCCc3ccccc3)c(C)[nH]c(=O)c2I)c1 [compound 547, 4-(3,5-dimethylphenoxy)-3-iodo-6-methyl-5-(3-phenyl-propyl)-1H-pyridin-2-one]	> 100000	6.3	>15849	–	–	–
Cc1cc(C)cc(Oc2c(CSCc3csc(C)n3)c(C)[nH]c(=O)c2I)c1 [compound 483, 4-(3,5-dimethylphenoxy)-3-iodo-6-methyl-5-[2-methylthiazol-4-ylmethylsulfanylmethyl)-1H-pyridin-2-one]	> 100000	1	>100000	–	–	–
CCc1c(CO)[nH]c(=O)c(I)c1Oc1cc(C)cc(C)c1 [compound 133, 4-(3,5-dimethylphenoxy)-5-ethyl-6-(hydroxymethyl)-3-iodo-2(1H)-pyridinone]	> 10000	1.6	>6310	–	–	–
Cc1cc(C)cc(Sc2c(CN3CCOCC3)c(C)[nH]c(=O)c2I)c1 [compound 43, 4-[(3,5-dimethylphenyl)-thio]-3-iodo-6-methyl-5-morpholinomethyl-1H-pyridin-2-one]	10000	1	10000	–	–	–
CCc1c(C=O)[nH]c(=O)c(I)c1Oc1cc(C)cc(C)c1 [compound 159, 4-(3,5-dimethylphenoxy)-3-ethyl-1,6-dihydro-5-iodo-6-oxo-2-pyridinecarboxaldehyde]	–	–	–	158	–	–
CCSCc1c(C)[nH]c(=O)c(I)c1Sc1cc(C)cc(C)c1 [compound 45]	> 100000	3.2	>31623	–	–	–
COCCOCc1c(C)[nH]c(=O)c(I)c1Oc1cc(C)cc(C)c1 [compound 253]	–	–	>6310	–	> 10000	1.6
